Like-named read-outs stand apart in the source and are kept apart here.
Assays:
[1] = test system: H1299 cells overexpressing Pim1 (H1299Pim1); test: BAD S112 phosphorylation inhibition assay (In Cell ELISA); format: cell-based; conditions: Homo sapiens, NCI-H1299, inhibition of Bad-phosphorylation, read-out: Cell assay BAD_P H1299 PIM1
tumor cell lines = test: Combination assay (MTT in vitro cell proliferation, combination index); format: cell-based; conditions: for EC50: read-out: Pim Inh EC50
[2] = Metabolic stability assay; format: in vitro ADME; conditions: percentage metabolic stability in human liver microsomes
Protocol: The metabolic stability assay was performed in Wuxi. 1 μM, 15 min. The kinase selectivity testing was performed in ProQinase GmbH, Germany.

panel of 24 kinases = test: Kinase selectivity testing (percentage inhibition of 24 kinases at 1 μM); format: biochemical; conditions: proquinase

EC50 [1]: 0.136 µM | EC50 (tumor cell lines; HTC116, colon carcinoma): 10 µM | EC50 (tumor cell lines; Homo sapiens, SK-MEL19, SKMel19, melanoma): 1 µM | Stability in HLM [2]: 96.65% | % inhibiton at 1 uM AKT2 (panel of 24 kinases; AKT2, 1 uM): 0% | % inhibiton at 1 uM B_RAF V600E (panel of 24 kinases; B_RAF V600E, 1 uM): 1% | % inhibiton at 1 uM CDK8 CYCC (panel of 24 kinases; CDK8 CYCC, 1 uM): 0% | % inhibiton at 1 uM CHK1 (panel of 24 kinases; CHK1, 1 uM): 0% | % inhibiton at 1 uM CK1 Alpha 1 (panel of 24 kinases; CK1 Alpha 1, 1 uM): 4% | % inhibiton at 1 uM DYRK 1A (panel of 24 kinases; DYRK 1A, 1 uM): 0% | % inhibiton at 1 uM EGF_R (panel of 24 kinases; EGF_R, 1 uM): 1% | % inhibiton at 1 uM FAK (panel of 24 kinases; FAK, 1 uM): 0% | % inhibiton at 1 uM FGFR1 (panel of 24 kinases; FGFR1, 1 uM): 0% | % inhibiton at 1 uM IGF1_R (panel of 24 kinases; IGF1_R, 1 uM): 5% | % inhibiton at 1 uM IKK BETA (panel of 24 kinases; IKK BETA, 1 uM): 0% | % inhibiton at 1 uM INS_R (panel of 24 kinases; INS_R, 1 uM): 0% | % inhibiton at 1 uM JAK2 (panel of 24 kinases; JAK2, 1 uM): 2% | % inhibiton at 1 uM KIT (panel of 24 kinases; KIT, 1 uM): 2% | % inhibiton at 1 uM MEK1 (panel of 24 kinases; MEK1, 1 uM): 1% | % inhibiton at 1 uM MET (panel of 24 kinases; MET, 1 uM): 0% | % inhibiton at 1 uM PAK1 (panel of 24 kinases; PAK1, 1 uM): 8% | % inhibiton at 1 uM PDGFR Alpha (panel of 24 kinases; PDGFR Alpha, 1 uM): 0% | % inhibiton at 1 uM PDK1 (panel of 24 kinases; PDK1, 1 uM): 0% | % inhibiton at 1 uM PLK1 (panel of 24 kinases; PLK1, 1 uM): 0% | % inhibiton at 1 uM SGK1 (panel of 24 kinases; SGK1, 1 uM): 6% | % inhibiton at 1 uM SRC (panel of 24 kinases; SRC, 1 uM): 8%
SMILES: COc1cc(NCC2CCNCC2)nc2c1nnn2-c1cccc(OC(F)(F)F)c1 [2-92]
Synergy (tumor cell lines; A549, combined with GDC-0941): +++ (0.1 < CI < 0.3 (+++)) | Synergy (tumor cell lines; DU145, combined with Taxotere): ++ (0.3 < CI < 0.7 (++)) | Synergy (tumor cell lines; HTC116, combined with PD-0325901): +++ (0.1 < CI < 0.3 (+++)) | Synergy (tumor cell lines; HTC116, combined with lapatinib): +++ (0.1 < CI < 0.3 (+++)) | Synergy (tumor cell lines; MV4:11, combined with lapatinib): ++ (0.3 < CI < 0.7 (++)) | Synergy (tumor cell lines; MiaPaca-2, combined with Gemcitabine): + (0.7 < CI < 1.2 (+)) | Synergy (tumor cell lines; NCIH1975, combined with GDC-0941): ++ (0.3 < CI < 0.7 (++)) | Synergy (tumor cell lines; PC3, combined with GDC-0941): + (0.7 < CI < 1.2 (+)) | Synergy (tumor cell lines; SKMel19, combined with GDC-0879): +++ (0.1 < CI < 0.3 (+++)) | Synergy (tumor cell lines; SKMel19, combined with GDC-0941): ++ (0.3 < CI < 0.7 (++))

From patent US20130065883A1 (Centro Nacional de Investigaceiones Oncologicas (CNIO), priority 2010, published 2013)
